Source: patent EP4471028A1, “HYDRAZINO GROUP-CONTAINING COMPOUND” (priority 2022, dated 2023)

Test: In vitro liver microsomal metabolic stability
Assay type: in vitro ADME
Conditions: human, liver microsomes, pH 7.4; 0.5 mg/mL microsomes, NADPH, 37 °C, 60 min; read-out: Human liver microsome Residual rate at 60 min%
Experimental: Liver microsome incubation samples were prepared by mixing a PBS buffer (pH 7.4), a liver microsome solution (0.5 mg/mL; species: human, monkey, dog, rat, and mouse), a test compound, and an NADPH + MgCl2 solution and incubated at 37 °C and 300 rpm for 1 h. Zero-hour samples were prepared by mixing a PBS buffer (pH 7.4), a liver microsome solution (0.5 mg/mL), and a test compound. An acetonitrile solution containing an internal standard was added to the samples, and supernatants were prepared by protein precipitation, diluted, and then assayed by LC/MS/MS.

Row | remaining at 1 h [%] | Compound
1 | 90.6 | Nn1c(=O)n(C2CCOCC2)c2c3cc(-c4ccc(OCCCN5CCCC5)nc4)c(F)cc3ncc21 [Example 5]
2 | 58.6 | COc1cc2ncc3c(c2cc1-c1ccc(OCCCN2CCCC2)nc1)n(C1CC1)c(=O)n3N [Example 11]
3 | 56 | COC1CCC(n2c(=O)n(N)c3cnc4cc(F)c(-c5ccc(OCCCN6CCCC6)nc5)cc4c32)C1 (centres unmarked) [Example 13]
4 | 58.4 | Nn1c(=O)n(C2CCOCC2)c2c3cc(-c4ccc(OCCCN5CCCCC5)nc4)c(F)cc3ncc21 [Example 15]
5 | 72.4 | COc1cc2ncc3c(c2cc1-c1ccc(OCCCN2CCCCC2)nc1)n(C(C)C)c(=O)n3N [Example 16]
6 | 85.2 | COc1cc2ncc3c(c2cc1-c1ccc(OCCCN2CCCC2)nc1)n(C(C)C)c(=O)n3N [Example 17]
7 | 77 | Nn1c(=O)n(C2CC2)c2c3cc(-c4ccc(OCCCN5CCCC5)nc4)c(F)cc3ncc21 [Example 19]

The next lines start with the compound.

Row | Compound | remaining at 1 h [%]
8 | CC(C)n1c(=O)n(N)c2cnc3cc(F)c(-c4ccc(OCCCN5CCCCC5)nc4)cc3c21 [Example 2] | 64.4
9 | CC(C)n1c(=O)n(N)c2cnc3cc(F)c(-c4ccc(OCCCN5CCCC5)nc4)cc3c21 [Example 3] | 86.3
10 | COC1CCC(n2c(=O)n(N)c3cnc4cc(F)c(-c5ccc(OCCCN(C)C)nc5)cc4c32)C1 (centres unmarked) [Example 14] | 66.2
11 | COC1CC(n2c(=O)n(N)c3cnc4cc(F)c(-c5ccc(OCCCN(C)C)nc5)cc4c32)C1 (centres unmarked) [Example 21] | 79.6
12 | CC(C)n1c(=O)n(N)c2cnc3cc(F)c(-c4ccc(OCC5CC(N6CCCC6)C5)nc4)cc3c21 (centres unmarked) [Example 22] | 73.3
13 | CC(C)n1c(=O)n(N)c2cnc3cc(F)c(-c4ccc(OCCCN5CC(CF)C5)nc4)cc3c21 [Example 28] | 65.6
14 | CC(C)n1c(=O)n(N)c2cnc3cc(F)c(-c4ccc(OCCCN5CC6(CCC6)C5)nc4)cc3c21 [Example 29] | 64.9
15 | CC(C)n1c(=O)n(N)c2nnc3cc(F)c(-c4ccc(OCCCN5CCCCC5)nc4)cc3c21 [Example 32] | 95.8

Test: In vivo pharmacokinetics (Table 4)
Conditions: plasma, po; IG 10mg/kg versus IV 1mg/kg; read-out: Absolute F

Row | bioavailability [%] | Compound
16 | 75.9 | Nn1c(=O)n(C2CC2)c2c3cc(-c4ccc(OCCCN5CCCCC5)nc4)c(F)cc3ncc21 [Example 18]
17 | 88.3 | Nn1c(=O)n(C2CC2)c2c3cc(-c4ccc(OCCCN5CCCC5)nc4)c(F)cc3ncc21 [Example 19]

Second part, the compound before the results:

Row | Compound | bioavailability [%]
18 | CC(C)n1c(=O)n(N)c2cnc3cc(F)c(-c4ccc(OCCCN5CCCCC5)nc4)cc3c21 [Example 2] | 79.7
19 | CC(C)n1c(=O)n(N)c2cnc3cc(F)c(-c4ccc(OCCCN5CCCC5)nc4)cc3c21 [Example 3] | 95.5
20 | CC(C)n1c(=O)n(N)c2cnc3cc(F)c(-c4ccc(OCCCN5C6CCC5CC6)nc4)cc3c21 [Example 27] | 115
21 | CC(C)n1c(=O)n(N)c2cnc3cc(F)c(-c4ccc(OCCCN5CC(CF)C5)nc4)cc3c21 [Example 28] | 77.4
22 | CC(C)n1c(=O)n(N)c2cnc3cc(F)c(-c4ccc(OCCCN5CC6(CCC6)C5)nc4)cc3c21 [Example 29] | 85.9

Same assay, conditions: plasma; IV, 1mg/kg; read-out: CLz (converted)

Row | clearance [mL/min/kg] | Compound
23 | 26.7 | Nn1c(=O)n(C2CC2)c2c3cc(-c4ccc(OCCCN5CCCCC5)nc4)c(F)cc3ncc21 [Example 18]
24 | 35.2 | Nn1c(=O)n(C2CC2)c2c3cc(-c4ccc(OCCCN5CCCC5)nc4)c(F)cc3ncc21 [Example 19]

Further lines, the compound ahead of its results:

Row | Compound | clearance [mL/min/kg]
25 | CC(C)n1c(=O)n(N)c2cnc3cc(F)c(-c4ccc(OCCCN5CCCCC5)nc4)cc3c21 [Example 2] | 31
26 | CC(C)n1c(=O)n(N)c2cnc3cc(F)c(-c4ccc(OCCCN5CCCC5)nc4)cc3c21 [Example 3] | 36.3
27 | CC(C)n1c(=O)n(N)c2cnc3cc(F)c(-c4ccc(OCCCN5C6CCC5CC6)nc4)cc3c21 [Example 27] | 59.7
28 | CC(C)n1c(=O)n(N)c2cnc3cc(F)c(-c4ccc(OCCCN5CC(CF)C5)nc4)cc3c21 [Example 28] | 7.45
29 | CC(C)n1c(=O)n(N)c2cnc3cc(F)c(-c4ccc(OCCCN5CC6(CCC6)C5)nc4)cc3c21 [Example 29] | 5.27
